This is an account of results in ChEMBL document CHEMBL5365414, “Synthesis and activity of β-carboline antimalarials targeting the Plasmodium falciparum heat shock 90 protein” (Bioorg Med Chem Lett, 2023).

The structures appear in SMILES notation. pEC50, pIC50: −log10 of the molar value.

Data set [1] relates to Plasmodium berghei. Description: Antimalarial activity against luciferase expressing liver stage Plasmodium berghei ANKA infected in human Huh-7 cells assessed as reduction in parasite load at 10 uM measured after 44 hrs post infection by Bright-glo reagent based luciferase reporter assay relative to control. It is filed as functional. On the set-up: scale not given: the % may be the effect or the level left. Background: In a reporter assay the amount or activity of a reporter protein is the signal.

Data set [2] concerns Huh-7. Description: Cytotoxicity against human Huh-7 cells infected with luciferase expressing liver stage Plasmodium berghei ANKA assessed as reduction in cell viability at 10 uM measured after 44 hrs post infection by Cell-TiterFluor viability assay relative to control. It is filed as toxicity, cell-based. The following applies: huh-7, 44 h.
A further data set has as its target T1, HSP90 (Plasmodium falciparum 3D7, UniProt Q8IL32).
T1 sequence (Q8IL32 whole entry): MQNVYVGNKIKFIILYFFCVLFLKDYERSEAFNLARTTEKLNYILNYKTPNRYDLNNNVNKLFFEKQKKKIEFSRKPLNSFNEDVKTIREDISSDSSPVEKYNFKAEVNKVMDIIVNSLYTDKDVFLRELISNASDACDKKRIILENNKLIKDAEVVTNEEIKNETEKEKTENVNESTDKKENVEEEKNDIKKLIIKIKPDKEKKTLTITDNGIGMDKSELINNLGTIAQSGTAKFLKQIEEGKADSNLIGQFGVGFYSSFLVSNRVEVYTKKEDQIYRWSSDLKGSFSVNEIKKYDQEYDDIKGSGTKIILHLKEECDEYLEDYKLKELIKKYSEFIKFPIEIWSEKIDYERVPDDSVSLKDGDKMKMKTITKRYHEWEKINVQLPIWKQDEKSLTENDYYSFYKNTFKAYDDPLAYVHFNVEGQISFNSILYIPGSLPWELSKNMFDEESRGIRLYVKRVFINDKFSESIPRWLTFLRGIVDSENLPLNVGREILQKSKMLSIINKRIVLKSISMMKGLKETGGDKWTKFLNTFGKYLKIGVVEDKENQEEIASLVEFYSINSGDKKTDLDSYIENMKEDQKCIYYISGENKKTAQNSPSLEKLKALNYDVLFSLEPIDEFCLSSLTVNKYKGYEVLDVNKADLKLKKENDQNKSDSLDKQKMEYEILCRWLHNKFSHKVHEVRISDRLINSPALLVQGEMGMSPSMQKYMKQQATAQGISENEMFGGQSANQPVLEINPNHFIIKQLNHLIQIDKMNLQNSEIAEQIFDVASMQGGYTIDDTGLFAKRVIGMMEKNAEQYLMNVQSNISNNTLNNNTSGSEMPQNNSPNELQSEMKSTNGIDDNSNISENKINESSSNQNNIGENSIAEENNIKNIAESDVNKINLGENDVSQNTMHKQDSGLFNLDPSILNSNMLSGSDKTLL
Description: Inhibition of recombinant his-tagged Plasmodium falciparum Hsp90 GHKL domain expressed in Escherichia coli BL21 (DE3) cells by bis-ANS binding assay.

Data set [3] has as its system Plasmodium berghei. As to the kind of experiment: Antimalarial activity against luciferase expressing liver stage Plasmodium berghei ANKA infected in human Huh-7 cells assessed as reduction in parasite load measured after 44 hrs post infection by Bright-glo reagent based luciferase reporter assay. It is filed as functional, organism-based. Particulars: Huh-7, 44 h.

Data set [4] has as its system Huh-7. As to the kind of experiment: Cytotoxicity against human Huh-7 cells infected with luciferase expressing liver stage Plasmodium berghei ANKA assessed as reduction in cell viability upto 100 uM measured after 44 hrs post infection by Cell-TiterFluor viability assay. It is filed as toxicity, cell-based. Particulars: huh-7, 44 h.
Data set [5] relates to Huh-7. Description: Cytotoxicity against human Huh-7 cells infected with luciferase expressing liver stage Plasmodium berghei ANKA assessed as reduction in cell viability at high doses measured after 44 hrs post infection by Cell-TiterFluor viability assay. Particulars: huh-7, 44 h. It counts as toxicity, cell-based.

As for `COc1ccc2[nH]c3c(-c4ccccc4)nccc3c2c1`, in the data set with Plasmodium berghei [1], the Activity was greater than 50%.

In the case of `c1ccc2c(c1)[nH]c1c(-c3ccsc3)nccc12`, the Activity is listed as greater than 50% in the data set with Plasmodium berghei [1] and 78% in the data set on Huh-7 [2].

As a reminder, the pIC50 is −log10 of the IC50, conventionally taken in molar units. As for `CC1NCCc2c1[nH]c1ccc(Cl)cc21` (stereo not drawn), on HSP90, the pIC50 is 4.91.

Regarding `Clc1cccc(-c2nccc3c2[nH]c2ccccc23)c1`, the Activity with Plasmodium berghei [1] is greater than 50%.

Consider `c1cncc(-c2nccc3c2[nH]c2ccccc23)c1`, for which, in the data set with Plasmodium berghei [1], the Activity was greater than 50%.

Turning to `N#Cc1ccc(-c2nccc3c2[nH]c2ccccc23)cc1`, the Activity with Plasmodium berghei [1] was greater than 50%.

The term pEC50 denotes the negative decadic logarithm of the EC50, by convention in mol/L. With `FC(F)(F)c1ccc(-c2nccc3c2[nH]c2ccccc23)cc1`, the Activity with Plasmodium berghei [1] was 5.8%; with Huh-7 [4] it was “Non-Toxic”. Moreover, the negative-log EC50 (pEC50) with Plasmodium berghei [3] is 5.28.

On to `c1ccc2c(c1)[nH]c1c(C3CC3)nccc12`, for which the Activity in the data set on Plasmodium berghei [1] is greater than 50%.

Regarding `Clc1cccc(-c2nccc3c2[nH]c2ccc(Cl)cc23)c1`, the Activity with Plasmodium berghei [1] is greater than 50%.

Take `COc1ccc(-c2nccc3c2[nH]c2ccccc23)cc1`: the Activity with Plasmodium berghei [1] is greater than 50%.

In the case of `COc1ccc2c(c1)[nH]c1c(C3CC3)nccc12`, the Activity with Plasmodium berghei [1] was greater than 50%.

For the compound `Clc1ccc2[nH]c3c(-c4ccccc4)nccc3c2c1`, the Activity in the data set with Plasmodium berghei [1] is reported as greater than 50%.

Take `FC(F)(F)c1cccc(-c2nccc3c2[nH]c2ccc(Cl)cc23)c1`: the Activity is given as 15% with Plasmodium berghei [1] and “Toxic” in the data set with Huh-7 [5]. In addition, the pEC50 in the data set with Plasmodium berghei [3] is 5.28.

As for `Cc1cccc(-c2nccc3c2[nH]c2ccc(Cl)cc23)c1`, the Activity in the data set with Plasmodium berghei [1] is 41%.

For the compound `COc1cccc(-c2nccc3c2[nH]c2ccc(Cl)cc23)c1`, the Activity is greater than 50% in the data set with Plasmodium berghei [1] and 78% in the data set on Huh-7 [2].

`O=C1C(O)=C([C@H]2CC[C@H](c3ccc(Cl)cc3)CC2)C(=O)c2ccccc21` [ATOVAQUONE]: the pEC50 in the data set with Plasmodium berghei [3] was 8.00.

With `c1ccc2c(c1)[nH]c1cnccc12` [NORHARMANE], the Activity with Plasmodium berghei [1] is reported as greater than 50%.
